# Assay results as given in patent US10287269B2, “Pyrazolyl pyrimidinone compounds as PDE2 inhibitors” (Merck Sharp & Dohme Corp., priority 2015, dated 2019).
# Target: T1, human PDE2A1 (Homo sapiens, UniProt O00408)
# T1 construct: GST; purchased BPS Bioscience (San Diego, Calif.) 60020; host or cells: insect cells
# Test: PDE2 IMAP FP inhibition assay, human enzyme (PDE selectivity panel format)
# Assay type: biochemical
# Conditions: Lab A; read-out: Human PDE2 Ki (nM) Lab A
# Method: Selectivity for PDE2, as compared to other PDE families, was assessed using the IMAP® technology. Human PDE10A2 enzyme was prepared from cytosolic fractions of transiently transfected HEK cells. All other PDE's were GST Tag human enzyme expressed in insect cells and were obtained from BPS Bioscience (San Diego, Calif.): PDE1A (Cat#60010), human PDE2A1 (Cat#60020), PDE3A (Cat#60030), PDE4A1A (Cat#60040), PDE5A1 (Cat#60050), PDE6C (Cat#60060), PDE7A (Cat#60070), PDE8A1 (Cat#60080), PDE9A2 (Cat#60090), PDE11A4 (Cat#60110).
# Assays for PDE 1 through 11 were performed in parallel at room temperature in 384-well microtiter plates with an incubation volume of 20.2 μL. Solutions of test compounds were prepared in DMSO and serially diluted with DMSO to yield 30 μL of each of ten solutions differing by 3-fold in concentration, at 32 serial dilutions per plate. […] A Labcyte POD 810 (Labcyte, Sunnyvale, Calif.) was used to dispense 200 nL from each well of the titration plate to make eleven copies of the assay plate for each titration, one copy for each PDE enzyme. A solution of each enzyme (dilution from aliquots, sufficient to produce 20% substrate conversion) and a separate solution of FAM-labeled cAMP or FAM-labeled cGMP from Molecular Devices (Sunnyvale, Calif., product # R7506 or cGMP#R7508), at a final concentration of 50 nM were made in the assay buffer (10 mM Tris HCl, pH 7.2, 10 mM MgCl2, 0.05% NaN3 0.01% Tween-20, and 1 mM DTT). Note that the substrate for PDE2 is 50 nM FAM cAMP containing 1000 nM of cGMP. The enzyme and the substrate were then added to the assay plates in two consecutive additions of 10 μL and then shaken to mix. The reaction was allowed to proceed at room temperature for 60 minutes. A binding solution was then made from the kit components, comprised of 80% Solution A, 20% Solution B and binding reagent at a volume of 1/600 the total binding solution. The enzymatic reaction was stopped by addition of 60 μL of the binding solution to each well of the assay plate. The plates were sealed and shaken for 10 seconds. The plates were incubated at room temperature for one hour, then the parallel and perpendicular fluorescence was measured using a Tecan Genios Pro plate reader (Tecan, Switzerland). The apparent inhibition constants for the compounds against all 11 PDE's was determined from the parallel and perpendicular fluorescent readings as described for PDE10 FP assay using the following apparent KM values for each enzyme and substrate combination: PDE1A (FAM cGMP) 70 nM, human PDE2A1 (FAM cAMP) 10,000 nM, PDE3A (FAM cAMP) 50 nM, PDE4A1A (FAM cAMP) 1500 nM, PDE5A1 (FAM cGMP) 400 nM, PDE6C (FAM cGMP) 700 nM, PDE7A (FAM cAMP) 150 nM, PDE8A1 (FAM cAMP) 50 nM, PDE9A2 (FAM cGMP) 60 nM, PDE10A2 (FAM cAMP) 150 nM, PDE11A4 (FAM cAMP) 1000 nM. The intrinsic PDE2 inhibitory activity of a compound which may be used in accordance with the present invention may be determined by these assays. […]
# T1 sequence (O00408 1-920 isoform O00408-2): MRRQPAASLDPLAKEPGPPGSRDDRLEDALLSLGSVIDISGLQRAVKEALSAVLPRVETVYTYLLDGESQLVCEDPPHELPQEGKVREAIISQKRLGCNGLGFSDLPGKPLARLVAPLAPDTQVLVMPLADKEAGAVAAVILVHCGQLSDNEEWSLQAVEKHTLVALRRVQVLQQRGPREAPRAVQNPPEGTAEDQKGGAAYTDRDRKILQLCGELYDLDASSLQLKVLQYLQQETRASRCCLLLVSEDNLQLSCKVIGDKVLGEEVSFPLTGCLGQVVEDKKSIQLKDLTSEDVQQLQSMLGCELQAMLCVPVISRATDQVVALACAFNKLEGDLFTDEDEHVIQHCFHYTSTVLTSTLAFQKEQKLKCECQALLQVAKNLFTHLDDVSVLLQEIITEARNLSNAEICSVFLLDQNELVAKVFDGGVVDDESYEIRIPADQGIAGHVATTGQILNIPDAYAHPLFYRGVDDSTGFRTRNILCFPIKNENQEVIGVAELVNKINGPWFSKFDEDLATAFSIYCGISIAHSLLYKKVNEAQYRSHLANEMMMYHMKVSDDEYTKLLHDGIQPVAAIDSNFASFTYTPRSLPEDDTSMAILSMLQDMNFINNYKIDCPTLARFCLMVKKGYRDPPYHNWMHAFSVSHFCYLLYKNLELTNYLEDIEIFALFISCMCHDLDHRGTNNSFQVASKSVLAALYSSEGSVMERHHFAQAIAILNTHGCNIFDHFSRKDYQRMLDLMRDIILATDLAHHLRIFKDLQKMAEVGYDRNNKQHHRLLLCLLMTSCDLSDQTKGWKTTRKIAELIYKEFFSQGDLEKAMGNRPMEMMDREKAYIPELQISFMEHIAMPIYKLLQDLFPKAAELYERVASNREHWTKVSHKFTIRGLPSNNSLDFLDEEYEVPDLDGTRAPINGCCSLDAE
row,SMILES,Ki [nM]
1,"Cc1nc(-c2cnn([C@H](C)c3c(F)cc(C(F)(F)F)cc3F)c2)cc(=O)[nH]1 (single isomer, unassigned) [Example 7]",126
2,"Cc1nc(-c2cnn([C@H](C)c3c(F)cc(C(F)(F)F)cc3F)c2)cc(=O)[nH]1 (single isomer, unassigned) [Example 8]",107
3,"CCc1ccc(C(CO)c2cnn(-c3cc(=O)[nH]c(C)n3)c2)c(F)c1 (single isomer, unassigned) [Example 115, (R)- or (S)-6-(4-(1-(4-ethyl-2-fluorophenyl)-2-hydroxyethyl)-1H-pyrazol-1-yl)-2-methylpyrimidin-4(3H)-one]",163
4,"CCc1ccc(C(C(=O)OC)n2cc(-c3cc(=O)[nH]c(C)n3)cn2)c(Cl)c1 (stereo not shown) [Example 114, methyl 2-(2-chloro-4-ethylphenyl)-2-(4-(2-methyl-6-oxo-1,6-dihydropyrimidin-4-yl)-1H-pyrazol-1-yl)acetate]",1820
5,"Cc1nc(-c2cn(C(C)c3ccc(C(F)(F)F)cc3F)nc2C)cc(=O)[nH]1 (single isomer, unassigned) [Example 70, (S)- or (R)-(6-(1-(1-(2-fluoro-4-(trifluoromethyl)phenyl)ethyl)-3-methyl-1H-pyrazol-4-yl)-2-methylpyrimidin-4(3H)-one]",312
6,"CCc1ccc(C(CO)c2cnn(-c3cc(=O)[nH]c(C)n3)c2)c(F)c1 (single isomer, unassigned) [Example 116, (S)- or (R)-6-(4-(1-(4-ethyl-2-fluorophenyl)-2-hydroxyethyl)-1H-pyrazol-1-yl)-2-methylpyrimidin-4(3H)-one]",537
7,"CCCc1ccc([C@](C)(O)c2cnn(-c3cc(=O)[nH]c(C)n3)c2)c(F)c1 (single isomer, unassigned) [Example 13]",287
8,"CCc1ccc([C@](C)(O)c2cnn(-c3cc(=O)[nH]c(C)n3)c2)c(F)c1 (single isomer, unassigned) [Example 12]",244
9,"COC(=O)C(c1ccc(C(F)(F)F)cc1F)n1cc(-c2cc(=O)[nH]c(C)n2)cn1 (stereo not shown) [Example 113, methyl 2-(2-fluoro-4-(trifluoromethyl)phenyl)-2-(4-(2-methyl-6-oxo-1,6-dihydropyrimidin-4-yl)-1H-pyrazol-1-yl)acetate]",1970
10,"CCc1ccc(C(CO)c2cnn(-c3cc(=O)[nH]c(C)n3)c2)c(Cl)c1 (single isomer, unassigned) [Example 120, (R)- or (S)-6-(4-(1-(2-chloro-4-ethylphenyl)-2-hydroxyethyl)-1H-pyrazol-1-yl)-2-methylpyrimidin-4(3H)-one]",321
11,"CCCc1ccc([C@](C)(O)c2cnn(-c3cc(=O)[nH]c(C)n3)c2)c(F)c1 (single isomer, unassigned) [Example 14]",1400
12,"Cc1nc(-c2cnn(C(C)c3ccc(CC(F)(F)F)cc3C)c2)cc(=O)[nH]1 (single isomer, unassigned) [Example 106, (S)- or (R)-2-methyl-6-(1-(1-(2-methyl-4-(2,2,2-trifluoroethyl)phenyl)ethyl)-1H-pyrazol-4-yl)pyrimidin-4(3H)-one]",710
13,"Cc1nc(-n2cc(C(C)(O)c3ccc(C(F)(F)F)cc3Cl)cn2)cc(=O)[nH]1 (single isomer, unassigned) [Example 118, (S)- or (R)-6-(4-(1-(2-chloro-4-(trifluoromethyl)phenyl)-1-hydroxyethyl)-1H-pyrazol-1-yl)-2-methylpyrimidin-4(3H)-one]",47.8
14,"Cc1nc(-c2cnn(C(CO)c3ccc(C(F)(F)F)cc3F)c2)cc(=O)[nH]1 (single isomer, unassigned) [Example 110, (S)- or (R)-6-(1-(1-(2-fluoro-4-(trifluoromethyl)phenyl)-2-hydroxyethyl)-1H-pyrazol-4-yl)-2-methylpyrimidin-4(3H)-one]",299
15,"CCc1ccc([C@@H](CO)n2cc(-c3cc(=O)[nH]c(C)n3)cn2)c(Cl)c1 (single isomer, unassigned) [Example 17]",683
16,"CCc1ccc(C(CO)n2cc(-c3cc(=O)[nH]c(C)n3)cn2)c(F)c1 (single isomer, unassigned) [Example 112, (S)- or (R)-6-(1-(1-(4-ethyl-2-fluorophenyl)-2-hydroxyethyl)-1H-pyrazol-4-yl)-2-methylpyrimidin-4(3H)-one]",438
17,"Cc1nc(-c2cnn(C(C)c3ccc(C(F)(F)F)cc3F)c2C)cc(=O)[nH]1 (single isomer, unassigned) [Example 72, (S)- or (R)-6-(1-(1-(2-fluoro-4-(trifluoromethyl)phenyl)ethyl)-5-methyl-1H-pyrazol-4-yl)-2-methylpyrimidin-4(3H)-one]",412
18,"Cc1nc(-c2cnn(C(CO)c3ccc(C(F)(F)F)cc3Cl)c2)cc(=O)[nH]1 (single isomer, unassigned) [Example 122, (R)- or (S)-6-(1-(1-(2-chloro-4-(trifluoromethyl)phenyl)-2-hydroxyethyl)-1H-pyrazol-4-yl)-2-methylpyrimidin-4(3H)-one]",616
19,"CCc1ccc(C(CO)n2cc(-c3cc(=O)[nH]c(C)n3)cn2)c(F)c1 (single isomer, unassigned) [Example 111, (R)- or (S)-6-(1-(1-(4-ethyl-2-fluorophenyl)-2-hydroxyethyl)-1H-pyrazol-4-yl)-2-methylpyrimidin-4(3H)-one]",42.5

# More lines, now with the values ahead:
row,Ki [nM],SMILES
1,9.4,"Cc1nc(-c2cnn(C(C)c3ccc(C4CC4)cc3Cl)c2)cc(=O)[nH]1 (single isomer, unassigned) [Example 107, (R)- or (S)-6-(1-(1-(2-chloro-4-cyclopropylphenyl)ethyl)-1H-pyrazol-4-yl)-2-methylpyrimidin-4(3H)-one]"
2,6.5,"Cc1nc(-c2cnn(C(CO)c3ccc(C(F)(F)F)cc3Cl)c2)cc(=O)[nH]1 (single isomer, unassigned) [Example 123, (S)- or (R)-6-(1-(1-(2-chloro-4-(trifluoromethyl)phenyl)-2-hydroxyethyl)-1H-pyrazol-4-yl)-2-methylpyrimidin-4(3H)-one]"
3,8.4,"CCc1ccc(C(CO)c2cnn(-c3cc(=O)[nH]c(C)n3)c2)c(Cl)c1 (single isomer, unassigned) [Example 121, (S)- or (R)-6-(4-(1-(2-chloro-4-ethylphenyl)-2-hydroxyethyl)-1H-pyrazol-1-yl)-2-methylpyrimidin-4(3H)-one]"
4,10.7,"CCc1ccc([C@@H](CO)n2cc(-c3cc(=O)[nH]c(C)n3)cn2)c(Cl)c1 (single isomer, unassigned) [Example 18]"
5,32.6,"Cc1nc(-c2cn(C(C)c3ccc(C(F)(F)F)cc3F)nc2C)cc(=O)[nH]1 (single isomer, unassigned) [Example 69, (R)- or (S)-(6-(1-(1-(2-fluoro-4-(trifluoromethyl)phenyl)ethyl)-3-methyl-1H-pyrazol-4-yl)-2-methylpyrimidin-4(3H)-one]"
6,16.7,"CCc1ccc(C(C)(O)c2cnn(-c3cc(=O)[nH]c(C)n3)c2)c(Cl)c1 (stereo not shown) [Example 119, 6-(4-(1-(2-chloro-4-ethylphenyl)-1-hydroxyethyl)-1H-pyrazol-1-yl)-2-methylpyrimidin-4(3H)-one]"
7,42.5,"CCc1ccc([C@](C)(O)c2cnn(-c3cc(=O)[nH]c(C)n3)c2)c(F)c1 (single isomer, unassigned) [Example 11]"
8,4.4,"Cc1nc(-n2cc(C(C)(O)c3ccc(C(F)(F)F)cc3Cl)cn2)cc(=O)[nH]1 (single isomer, unassigned) [Example 117, (R)- or (S)-6-(4-(1-(2-chloro-4-(trifluoromethyl)phenyl)-1-hydroxyethyl)-1H-pyrazol-1-yl)-2-methylpyrimidin-4(3H)-one]"
9,16.5,"Cc1nc(-c2cnn(C(C)c3ccc(C(F)(F)F)cc3F)c2C)cc(=O)[nH]1 (single isomer, unassigned) [Example 71, (R)- or (S)-6-(1-(1-(2-fluoro-4-(trifluoromethyl)phenyl)ethyl)-5-methyl-1H-pyrazol-4-yl)-2-methylpyrimidin-4(3H)-one]"
